# Reference: patent US20250241586A1, “Bioavailability and bioequivalence through intrinsic activity and KD measurements, in vivo, in humans” (priority 2024, published 2025)
# Where two headings read alike, the source gives them in different places.
# Legend:
# [1] = tested on: benzodiazepine receptors; experiment: Sleep time in human male volunteers; in vivo KD from reciprocals plot; conditions: for A Free drug**: free drug quantity crossing the blood brain barrier
# Method: Drug action is measured by the following parameters all measured in vivo in living animals/humans. • A) Onset time and threshold dose/concentration (minimum dose/concentration to initiate the effect,) these indicate the potency of the drug. • B) Intrinsic Activity or the maximum possible effect, • C) Dissociation constant. Its reciprocal measures the affinity of the drug for the receptor. The above named, parameters have been measured as stated below:
# The literature also notes that there could be huge differences in in vivo and in vitro values and in such cases in vivo values are to be taken, if available (1). […] A point in this regard is that many drugs act on multiple receptor systems and in such cases the response is to be chosen such that only one receptor system is involved. […] The assumption is valid since the amount of bound drug is negligible compared to the total amount of drug at receptor and may be neglected. […] Alprazolam was administered to human male volunteers with sound health, of average weight and having normal creatinine clearance in the doses of 4 mcg/kg, 6 mcg/kg and 8 mcg/kg, and onset and sleep times noted. • The amount of free drug crossing the blood brain barrier was obtained.
# [2] = molecular target: K+ channels of the beta cells of the pancreas (Homo sapiens, UniProt Q09428); conditions: for KD: in vivo in humans, from slope of 1/fractional response vs 1/A plot
# Chain of K+ channels of the beta cells of the pancreas (Q09428 whole entry): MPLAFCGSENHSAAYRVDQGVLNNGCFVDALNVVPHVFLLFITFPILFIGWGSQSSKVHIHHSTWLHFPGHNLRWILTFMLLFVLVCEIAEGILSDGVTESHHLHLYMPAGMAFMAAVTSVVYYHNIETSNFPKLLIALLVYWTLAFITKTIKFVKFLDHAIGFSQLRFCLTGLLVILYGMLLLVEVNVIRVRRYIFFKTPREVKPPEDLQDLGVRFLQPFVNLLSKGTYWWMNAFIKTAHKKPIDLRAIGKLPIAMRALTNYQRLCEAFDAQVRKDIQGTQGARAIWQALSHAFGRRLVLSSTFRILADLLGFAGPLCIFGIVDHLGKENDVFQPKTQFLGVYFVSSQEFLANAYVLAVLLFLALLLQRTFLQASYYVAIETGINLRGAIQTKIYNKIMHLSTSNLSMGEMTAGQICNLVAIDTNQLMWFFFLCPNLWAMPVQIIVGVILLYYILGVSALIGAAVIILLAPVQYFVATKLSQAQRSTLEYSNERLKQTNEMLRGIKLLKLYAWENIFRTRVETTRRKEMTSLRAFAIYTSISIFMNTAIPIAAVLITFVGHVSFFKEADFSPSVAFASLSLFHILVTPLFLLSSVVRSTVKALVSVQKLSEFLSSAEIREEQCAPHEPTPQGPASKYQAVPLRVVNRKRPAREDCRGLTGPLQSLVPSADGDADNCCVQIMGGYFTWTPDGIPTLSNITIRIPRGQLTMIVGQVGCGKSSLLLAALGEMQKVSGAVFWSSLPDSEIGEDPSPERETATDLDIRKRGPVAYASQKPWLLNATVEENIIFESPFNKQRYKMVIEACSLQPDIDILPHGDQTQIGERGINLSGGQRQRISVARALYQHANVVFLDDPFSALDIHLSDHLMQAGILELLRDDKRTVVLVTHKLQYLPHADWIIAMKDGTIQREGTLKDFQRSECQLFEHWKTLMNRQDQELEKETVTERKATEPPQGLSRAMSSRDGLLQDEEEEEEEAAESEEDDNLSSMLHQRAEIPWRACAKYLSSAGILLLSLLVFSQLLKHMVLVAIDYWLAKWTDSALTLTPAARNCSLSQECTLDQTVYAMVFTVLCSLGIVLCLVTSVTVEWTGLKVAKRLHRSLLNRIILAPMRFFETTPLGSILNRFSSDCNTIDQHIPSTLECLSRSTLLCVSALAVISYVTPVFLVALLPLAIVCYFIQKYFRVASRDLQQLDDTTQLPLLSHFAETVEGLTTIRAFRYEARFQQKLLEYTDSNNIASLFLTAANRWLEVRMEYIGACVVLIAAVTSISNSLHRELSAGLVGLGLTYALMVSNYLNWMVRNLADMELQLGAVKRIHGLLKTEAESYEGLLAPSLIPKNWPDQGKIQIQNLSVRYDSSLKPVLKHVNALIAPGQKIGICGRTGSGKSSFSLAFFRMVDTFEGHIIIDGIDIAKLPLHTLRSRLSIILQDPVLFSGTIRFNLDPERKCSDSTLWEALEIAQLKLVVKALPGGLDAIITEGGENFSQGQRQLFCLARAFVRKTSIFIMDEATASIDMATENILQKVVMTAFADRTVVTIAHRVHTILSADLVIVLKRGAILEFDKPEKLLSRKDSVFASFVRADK
# Chain of K+ channels of the beta cells of the pancreas (Q14654 whole entry partner): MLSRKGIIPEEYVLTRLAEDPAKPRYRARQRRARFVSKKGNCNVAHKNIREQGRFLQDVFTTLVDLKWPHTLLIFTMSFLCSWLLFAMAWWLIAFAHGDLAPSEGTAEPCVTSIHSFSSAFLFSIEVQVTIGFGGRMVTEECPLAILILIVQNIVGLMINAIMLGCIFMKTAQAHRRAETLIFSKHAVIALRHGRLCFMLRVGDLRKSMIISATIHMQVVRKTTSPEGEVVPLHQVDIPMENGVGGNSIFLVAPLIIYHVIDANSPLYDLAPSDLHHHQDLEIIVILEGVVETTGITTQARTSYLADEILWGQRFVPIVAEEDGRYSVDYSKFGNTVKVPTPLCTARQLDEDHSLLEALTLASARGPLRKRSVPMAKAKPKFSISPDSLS
# [3] = in vitro and cell culture; read-out: KD literature values; cited from earlier work
smiles,measurement,setting,value
"Cc1nnc2n1-c1ccc(Cl)cc1C(c1ccccc1)=NC2 [Alprazolam, alprazolam]",1/A,[1]; alprazolam dose 4 Mcg/kg,225.8
same,1/Fractional response,[1]; alprazolam dose 4 Mcg/kg,3.8
same,Response sleep time,[1]; alprazolam dose 4 Mcg/kg,63 min
same,A Free drug**,[1]; alprazolam dose 4 Mcg/kg,0.0044 Mcg/ml
same,1/A,[1]; alprazolam dose 6 Mcg/kg,151.4
same,1/Fractional response,[1]; alprazolam dose 6 Mcg/kg,2.4
same,Response sleep time,[1]; alprazolam dose 6 Mcg/kg,100 min
same,A Free drug**,[1]; alprazolam dose 6 Mcg/kg,0.0066 Mcg/ml
same,1/A,[1]; alprazolam dose 8 Mcg/kg,49.8
same,1/Fractional response,[1]; alprazolam dose 8 Mcg/kg,1.0
same,Response sleep time,[1]; alprazolam dose 8 Mcg/kg,241 min
same,A Free drug**,[1]; alprazolam dose 8 Mcg/kg,0.0088 Mcg/ml
same,Threshold dose,[1]; humans,4 mcg/kg bodyweight
same,Kd,"[1]; in vivo in humans, response sleep time, free drug crossing the blood brain barrier, slope of reciprocals plot",50.8 nM
"CCC1=C(C)CN(C(=O)NCCc2ccc(S(=O)(=O)NC(=O)N[C@H]3CC[C@H](C)CC3)cc2)C1=O [Glimepride, glimepride]",1/Fractional response,[2]; glimepride dose 5 Mcg/kg,17.24
same,Response AUC reduction,[2]; glimepride dose 5 Mcg/kg,30 mg·h/dL
same,1/Fractional response,[2]; glimepride dose 10 Mcg/kg,4.48
same,Response AUC reduction,[2]; glimepride dose 10 Mcg/kg,115 mg·h/dL
same,1/Fractional response,[2]; glimepride dose 20 Mcg/kg,1.0
same,Response AUC reduction,[2]; glimepride dose 20 Mcg/kg,514 mg·h/dL
same,KD,[2],KD = 2.018 nM
same,KD,[2]; listed as glimepride,2.0 nM
same,Threshold dose,"[2]; point of inflection of log dose response curve, humans",5 mcg/kg body weight
"Cc1cnc(C(=O)NCCc2ccc(S(=O)(=O)NC(=O)NC3CCCCC3)cc2)cn1 [Glipizide, glipizide]",KD,[2],KD = 8.98 nM
same,KD,[2]; listed as glipizide,8.98 nM
same,Kd,[3],~10 nM
